Results published in patent US12336980B2, “Dosing regimen for a selective S1P1 receptor agonist” (Vanda Pharmaceuticals Inc., priority 2014, dated 2025).

System: healthy subjects
Assay: 12-lead ECG, heart rate, PR interval and ECG abnormalities, cross-over up-titration study
Assay type: in vivo, human
Settings: for mean maximum change from baseline in HR (12-lead ECG): Day 2, 2 h post-dose; for mean maximum change from baseline in HR (12-lead ECG) / decrease in HR vs. baseline (12-lead ECG): mean±SD; for decrease in HR vs. baseline (12-lead ECG): Day 3, 2 h after administration; for time for HR to return to baseline values post-dose (12-lead ECG): Day 2; for occurrence of HR <45 bpm, events / occurrence of HR <45 bpm, subjects: any time during the regimen, 12-lead ECG; for occurrence of PR interval >210 ms, events / occurrence of PR interval >210 ms, subjects: during the course of the study; for occurrence of HR <45 bpm, HR decrease >20 bpm, PR interval ≥200 ms or PR increase >20 ms, events / occurrence of HR <45 bpm, HR decrease >20 bpm, PR interval ≥200 ms or PR increase >20 ms, subjects / percentage of subjects with at least one event (HR <45 bpm, HR decrease >20 bpm, PR ≥200 ms, PR increase >20 ms): first 12 hours on Day 2
Procedure: In a single-center, double-blind, placebo-controlled, randomized, two-way cross-over study, 32 healthy subjects (15 males) received placebo on Day 1 followed by multiple-dose administration of either ponesimod or placebo (ratio 3:1). Ponesimod was administered alternately using regimen A (incremental dose increase from 2 to 20 mg) or B (10 mg for 7 days followed by a single-dose administration of 20 mg). Cardiodynamic (Holter and 12-lead ECG), pharmacokinetic, pharmacodynamic (total lymphocyte count), and safety variables were assessed.
The enrolled subjects came to the study center for each treatment period on Day −2 and participated in a run-in (all study procedures performed without study drug administration) on Day −1. On Day 1, subjects were randomized to one of the two possible sequences of the two up-titration regimens A and B (ratio 1:1). On Day 1, all subjects received placebo; the first study drug administration (or its matching placebo) occurred on Day 2. Regimen A consisted of the novel up-titration regimen: ponesimod was administered once daily (o.d.) orally at a dose of 2 mg on Day 2 and Day 3, 3 mg on Day 4 and Day 5, 4 mg on Day 6 and Day 7, 5 mg on Day 8, 6 mg on Day 9, 7 mg on Day 10, 8 mg on Day 11, 9 mg on Day 12, 10 mg on Day 13 and Day 14, and 20 mg on Day 15. The reference regimen (regimen B) was based on previous studies (Olsson T. et al., Oral ponesimod in relapsing-remitting multiple sclerosis: a randomised phase II trial. J Neurol Neurosurg Psychiatry. 2014; 85 (11): 1198-1208; and Vaclavkova A. et al., Oral ponesimod in patients with chronic plaque psoriasis: a randomised, double-blind, placebo-controlled phase 2 trial. Lancet. 2014; 384 (9959): 2036-2045) and consisted of an o.d. oral administration of ponesimod at a dose of 10 mg for 7 days (i.e., from Day 2 to Day 8) and 20 mg on Day 9. From Day 10 to Day 15 subjects received o.d. the matching placebo. In the placebo group (1:1 sex ratio), subjects received placebo from Day 1 to Day 15. All treatments were administered at the same time in the morning (fasted condition) with approximately 240 mL of water.
Cardiodynamic endpoints were assessed using Holter and 12-lead ECG. The 24-h Holter recordings were performed on Day -1, Day 1, Day 2, Day 9, Day 13, and Day 15. The 12-h Holter recordings were performed on the other days. In addition, Holter data were used to estimate the area under the effect curve (AUEC) for HR. 12-lead ECGs were performed from Day −1 to Day 16 at pre-dose and 1, 2, 3, 4, 5, 6, 8, 10, and 12 h after study drug administration. An additional 12-lead ECG recording was performed at EOFP and EOS. Heart rate nadir, Emax (maximum decrease of mean hourly HR from baseline, which was defined as the mean of the time-matched assessments measured on Day −1 and Day 1 pre-dose), and occurrence of values of interest (HR <45 bpm, HR decrease from baseline >20 bpm, and PR interval increase from baseline >20 ms), and AV-blocks (i.e., […]) were obtained with 12-lead ECG.
Cardiodynamic and pharmacodynamic data are expressed as mean±SD. Repeated measure one-way ANOVAs followed by Tukey's multiple-comparisons tests were used to perform inter-group (i.e., placebo vs. regimen A vs. regimen B) comparisons. Student's t-tests were employed to perform intra-group (baseline vs. treatment) comparisons. Differences were considered to be statistically significant at p <0.05. SAS® version 9.2 (SAS Institute, Cary, NC, USA) was used for the statistical analysis and descriptive statistics of clinical data.

[1] = Regimen A (N = 24), Day 2 to EOFP or EOS visit
[2] = Regimen B (N = 24), Day 2 to EOFP or EOS visit

Compound: CCC/N=C1\S/C(=C\c2ccc(OC[C@H](O)CO)c(Cl)c2)C(=O)N1c1ccccc1C [ponesimod, (R)-5-[3-chloro-4-(2,3-dihydroxy-propoxy)-benz[Z]ylidene]-2-([Z]-propylimino)-3-o-tolyl-thiazolidin-4-one]
- mean maximum change from baseline in HR (12-lead ECG) (2 mg (regimen A)): −9±5.3 bpm
- decrease in HR vs. baseline (12-lead ECG) (2 mg second dose): −9±5.2 bpm
- mean maximum change from baseline in HR (12-lead ECG) (10 mg (regimen B)): −13±6.2 bpm
- decrease in HR vs. baseline (12-lead ECG) (10 mg second dose): −10±5.1 bpm
- pre-dose HR values (range) (Day 4 to last day of administration, ponesimod-treated subjects): 56-60 bpm
- Atrial rhythm, number of events [1]: 19
- Atrial rhythm, number of subjects [1]: 4
- Atrial rhythm, percentage of subjects [1]: 16.7 percentage
- Sinus bradycardia, number of events [1]: 3
- Sinus bradycardia, number of subjects [1]: 3
- Sinus bradycardia, percentage of subjects [1]: 12.5 percentage
- Supraventricular extrasystoles, number of events [1]: 15
- Supraventricular extrasystoles, number of subjects [1]: 3
- Supraventricular extrasystoles, percentage of subjects [1]: 12.5 percentage
- Ventricular extrasystoles, number of events [1]: 1
- Ventricular extrasystoles, number of subjects [1]: 1
- Ventricular extrasystoles, percentage of subjects [1]: 4.2 percentage
- AV-block 1st degree, number of events [2]: 130
- AV-block 1st degree, number of subjects [2]: 6
- AV-block 1st degree, percentage of subjects [2]: 25.0 percentage
- AV-block 2nd degree Mobitz I, number of events [2]: 1
- AV-block 2nd degree Mobitz I, number of subjects [2]: 1
- AV-block 2nd degree Mobitz I, percentage of subjects [2]: 4.2 percentage
- Atrial fibrillation, number of subjects [2]: 1
- Atrial fibrillation, percentage of subjects [2]: 4.2 percentage
- Atrial rhythm, number of events [2]: 12
- Atrial rhythm, number of subjects [2]: 2
- Atrial rhythm, percentage of subjects [2]: 8.3 percentage
- QT prolonged, number of events [2]: 142
- QT prolonged, number of subjects [2]: 6
- QT prolonged, percentage of subjects [2]: 25.0 percentage
- Short PQ, number of events [2]: 147
- Short PQ, number of subjects [2]: 6
- Short PQ, percentage of subjects [2]: 25.0 percentage
- Sinus arrhythmia, number of events [2]: 98
- Sinus arrhythmia, number of subjects [2]: 12
- Sinus arrhythmia, percentage of subjects [2]: 50.0 percentage
- Sinus bradycardia, number of events [2]: 33
- Sinus bradycardia, number of subjects [2]: 3
- Sinus bradycardia, percentage of subjects [2]: 12.5 percentage
- Supraventricular extrasystoles, number of events [2]: 29
- Supraventricular extrasystoles, number of subjects [2]: 7
- Supraventricular extrasystoles, percentage of subjects [2]: 29.2 percentage
- Ventricular extrasystoles, number of events [2]: 3
- Ventricular extrasystoles, number of subjects [2]: 3
- Ventricular extrasystoles, percentage of subjects [2]: 12.5 percentage
- Atrial fibrillation, number of events (Regimen B (N = 24), Day 2 to EOFP or EOS visit, *Serious adverse event): 1
- time for HR to return to baseline values post-dose (12-lead ECG) (regimen A): ≤ 3 h
- occurrence of HR <45 bpm, events (regimen A): 20 events
- occurrence of HR <45 bpm, subjects (regimen A): 3 subjects
- occurrence of PR interval >210 ms, events (regimen A): 79 events
- occurrence of PR interval >210 ms, subjects (regimen A): 6 subjects
- occurrence of HR <45 bpm, HR decrease >20 bpm, PR interval ≥200 ms or PR increase >20 ms, events (regimen A): 14 events
- occurrence of HR <45 bpm, HR decrease >20 bpm, PR interval ≥200 ms or PR increase >20 ms, subjects (regimen A): 6 subjects
- percentage of subjects with at least one event (HR <45 bpm, HR decrease >20 bpm, PR ≥200 ms, PR increase >20 ms) (regimen A): 25%
- time for HR to return to baseline values post-dose (12-lead ECG) (regimen B): ≤ 4 h
- occurrence of HR <45 bpm, events (regimen B): 58 events
- occurrence of HR <45 bpm, subjects (regimen B): 4 subjects
- occurrence of PR interval >210 ms, events (regimen B): 143 events
- occurrence of PR interval >210 ms, subjects (regimen B): 8 subjects
- occurrence of HR <45 bpm, HR decrease >20 bpm, PR interval ≥200 ms or PR increase >20 ms, events (regimen B): 43 events
- occurrence of HR <45 bpm, HR decrease >20 bpm, PR interval ≥200 ms or PR increase >20 ms, subjects (regimen B): 12 subjects
- percentage of subjects with at least one event (HR <45 bpm, HR decrease >20 bpm, PR ≥200 ms, PR increase >20 ms) (regimen B): 50%
